Measured values from ChEMBL document CHEMBL1148325 (J Med Chem, 2004).

Assay: In vivo reduction in blood pressure relative to maximum achieved with the K-ATP standard P1075 in spontaneously hypertensive rat

O=C1OCC2=C1C(c1ccc(F)c(Br)c1)C1=C(O)OCC1=N2 (stereo not drawn)
ED50: 398 nM

O=C1CCCC2=C1[C@H](c1ccc(F)c(Br)c1)C1=C(CCS1(=O)=O)N2
ED50: 427 nM

O=C1CCCC2=C1[C@@H](c1ccc(F)c(Br)c1)C1=C(O)OCC1=N2
ED50: 2450 nM
